# Data: US6914045B2, “Glycopeptide antibiotics” (Wyeth Holdings Corporation, priority 2001, dated 2005)
# Numbered stars: 1 amine (or outer) side, 2 acyl side, 3 side chain; on linkers, the order of the positions; unused ones are H or OH. Square brackets hold non-standard residues; d marks the D form. Peptide text beside a SMILES is read from it. ξ: configuration not given here. X6 = N=C1NCC(CC(N[*:1])C(=O)[*:2])N1C1OC(CO)C(O)C(O)C1O; Tyr(3-NO2) = N[CH](Cc1ccc(O)c([N+](=O)[O-])c1)C(=O)O; X7 = N=C1NCC(CC(N[*:1])C(=O)[*:2])N1; ξPhe(βξ-Me) = CC(c1ccccc1)C(N)C(=O)O
# How the values were obtained:
# Assay in all cases: in vitro antibacterial evaluation, MIC by broth dilution
# Assay type in all cases: cell-based
# [1] = system: Staphylococcus sp.
# Method: (§1) Methods for in vitro Antibacterial Evaluation (Table 1)
# (§2) The minimum inhibitory concentration (MIC), the lowest concentration of the antibiotic which inhibits growth of the test organism, is determined by the broth dilution method using Muller-Hinton II […] (Baltimore Biological Laboratories) following the recommendations of the National Committee for Clinical Laboratory Standards [Methods for dilution antimicrobial susceptibility tests for bacteria that grow aerobically, approved standard M7-A2, National Committee for Clinical Laboratory Standards, Villanova, Pa.].
# (§3) An inoculum level of 5×10^5 CFU/mL, and a range of antibiotic concentrations (64-0.06 μg/mL) is used. […] The test organisms include a spectrum of Gram-positive bacteria comprised of Staphylococcus sp., Streptococcus sp. and Enterococcus sp. These organisms include recent clinical isolates that are resistant to methicillin, penicillin and/or vancomycin.
# [2] = system: Enterococcus sp.; settings: broth dilution, 18 hours at 35° C.; for MIC Enterococcus faecalis (ATCC 29212): strain ATCC 29212; for MIC Enterococcus faecalis (GC 2242): strain GC 2242; for MIC Enterococcus faecium (GC 2243): strain GC 2243; for MIC Enterococcus faecalis (GC 2691): strain GC 2691; for MIC Enterococcus faecalis (GC 3059): strain GC 3059; for MIC Enterococcus faecalis (GC 4552): strain GC 4552; for MIC Enterococcus faecalis (GC 4553): strain GC 4553; for MIC Enterococcus faecalis (GC 4554): strain GC 4554; for MIC Enterococcus faecium (GC 4556): strain GC 4556; for MIC Enterococcus faecium (GC 4557): strain GC 4557; for MIC Enterococcus avium (GC 4558): strain GC 4558; for MIC Enterococcus faecalis (GC 6189): strain GC 6189
# Method: as §1, §2, §3
# [3] = system: Streptococcus sp.; settings: broth dilution, 18 hours at 35° C.; for MIC Streptococcus pneumoniae (ATCC 6301): strain ATCC 6301; for MIC Streptococcus pneumoniae (GC 1894): strain GC 1894; for MIC Streptococcus pyogenes (GC 4563): strain GC 4563; for MIC Streptococcus agalactiae (GC 4564): strain GC 4564; for MIC Streptococcus pneumoniae (GC 4565): strain GC 4565
# Method: as §1, §2, §3
# [4] = system: Escherichia coli; settings: broth dilution, 18 hours at 35° C.; for MIC Escherichia coli (ATCC 25922): strain ATCC 25922; for MIC Escherichia coli (GC 4559): strain GC 4559; for MIC Escherichia coli (GC 4560): strain GC 4560
# In short: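 Broth dilution MIC per NCCLS M7-A2 in Mueller-Hinton II medium, inoculum 5×10^5 CFU/mL, antibiotic range 64-0.06 μg/mL. MIC taken as lowest concentration inhibiting growth.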
# [5] = strain ATCC 29213; broth dilution, 18 hours at 35° C.
# [6] = strain GC 1131; broth dilution, 18 hours at 35° C.
# [7] = strain GC 3051; broth dilution, 18 hours at 35° C.
# [8] = strain GC 3053; broth dilution, 18 hours at 35° C.
# [9] = strain GC 4541; broth dilution, 18 hours at 35° C.
# [10] = strain GC 4542; broth dilution, 18 hours at 35° C.
# [11] = strain GC 4543; broth dilution, 18 hours at 35° C.
# [12] = strain GC 4544; broth dilution, 18 hours at 35° C.
# [13] = strain GC 4545; broth dilution, 18 hours at 35° C.
# [14] = strain GC 4546; broth dilution, 18 hours at 35° C.
# [15] = strain GC 4547; broth dilution, 18 hours at 35° C.
# [16] = strain GC 4548; broth dilution, 18 hours at 35° C.
# [17] = strain GC 4549; broth dilution, 18 hours at 35° C.
# [18] = strain GC 4551; broth dilution, 18 hours at 35° C.
# [19] = strain GC 6257; broth dilution, 18 hours at 35° C.
MIC Enterococcus faecalis (ATCC 29212) [2] [µg/mL],MIC Enterococcus faecalis (GC 2242) [2] [µg/mL],MIC Enterococcus faecium (GC 2243) [2] [µg/mL],MIC Enterococcus faecalis (GC 2691) [2] [µg/mL],MIC Enterococcus faecalis (GC 3059) [2] [µg/mL],MIC Enterococcus faecalis (GC 4552) [2] [µg/mL],MIC Enterococcus faecalis (GC 4553) [2] [µg/mL],MIC Enterococcus faecalis (GC 4554) [2] [µg/mL],MIC Enterococcus faecium (GC 4556) [2] [µg/mL],MIC Enterococcus faecium (GC 4557) [2] [µg/mL],MIC Enterococcus avium (GC 4558) [2] [µg/mL],MIC Enterococcus faecalis (GC 6189) [2] [µg/mL],MIC Streptococcus pneumoniae (ATCC 6301) [3] [µg/mL],MIC Streptococcus pneumoniae (GC 1894) [3] [µg/mL],MIC Streptococcus pyogenes (GC 4563) [3] [µg/mL],MIC Streptococcus agalactiae (GC 4564) [3] [µg/mL],MIC Streptococcus pneumoniae (GC 4565) [3] [µg/mL],MIC Escherichia coli (ATCC 25922) [4] [µg/mL],MIC Escherichia coli (GC 4559) [4] [µg/mL],MIC Escherichia coli (GC 4560) [4] [µg/mL],Structure (SMILES),also measured
>64,>64,>64,>64,>64,>64,>64,>64,>64,>64,>64,>64,>64,>64,>64,>64,>64,>64,>64,>64,"CC(c1ccccc1)C1NC(=O)CNC(=O)C(CO)NC(=O)C(CC2CNC(=N)N2C2OC(CO)C(O)C(O)C2O)NC(=O)C(CC2CNC(=N)N2)NC(=O)C(Cc2ccc(O)c([N+](=O)[O-])c2)NC1=O (stereo not drawn) [Example 10, Cyclo[3-(2-iminoimidazolidin-4-yl)alanyl-3-(3-hexopyranosyl-2-iminoimidazolidin-4-yl)-alanylserylglycyl-β-methylphenylalanyl-3-nitrotyrosyl]] (cyclo(G[ξPhe(βξ-Me)][Tyr(3-NO2)][X7][X6]S); configuration not given here)","MIC Staphylococcus aureus (ATCC 29213) ([1]; broth dilution, 18 hours at 35° C.; strain ATCC 29213): >64 µg/mL; MIC Staphylococcus aureus (GC 1131) ([1]; broth dilution, 18 hours at 35° C.; strain GC 1131): >64 µg/mL; MIC Staphylococcus aureus (GC 3051) ([1]; broth dilution, 18 hours at 35° C.; strain GC 3051): >64 µg/mL; MIC Staphylococcus aureus (GC 3053) ([1]; broth dilution, 18 hours at 35° C.; strain GC 3053): >64 µg/mL; MIC Staphylococcus aureus (GC 4541) ([1]; broth dilution, 18 hours at 35° C.; strain GC 4541): >64 µg/mL; MIC Staphylococcus aureus (GC 4542) ([1]; broth dilution, 18 hours at 35° C.; strain GC 4542): >64 µg/mL; MIC Staphylococcus aureus-SMITH (GC 4543) ([1]; broth dilution, 18 hours at 35° C.; strain GC 4543): >64 µg/mL; MIC Staphylococcus aureus (GC 4544) ([1]; broth dilution, 18 hours at 35° C.; strain GC 4544): >64 µg/mL; MIC Staphylococcus aureus (GC 4545) ([1]; broth dilution, 18 hours at 35° C.; strain GC 4545): >64 µg/mL; MIC Staphylococcus haemolyticus (GC 4546) ([1]; broth dilution, 18 hours at 35° C.; strain GC 4546): >64 µg/mL; MIC Coagulase Negative Staphylococcus (GC 4547) ([1]; broth dilution, 18 hours at 35° C.; strain GC 4547): >64 µg/mL; MIC Coagulase Negative Staphylococcus (GC 4548) ([1]; broth dilution, 18 hours at 35° C.; strain GC 4548): >64 µg/mL; MIC Coagulase Negative Staphylococcus (GC 4549) ([1]; broth dilution, 18 hours at 35° C.; strain GC 4549): >64 µg/mL; MIC Coagulase Negative Staphylococcus (GC 4551) ([1]; broth dilution, 18 hours at 35° C.; strain GC 4551): >64 µg/mL; MIC Coagulase Negative Staphylococcus (GC 6257) ([1]; broth dilution, 18 hours at 35° C.; strain GC 6257): >64 µg/mL"
>128,>128,>128,>128,>128,>128,>128,>128,>128,>128,128,>128,>128,128,>128,128,128,>128,>128,128,"CC(c1ccccc1)C1NC(=O)CNC(=O)C(CO)NC(=O)C(C(O)C2CNC(=N)N2C2OC(CO)C(O)C(O)C2O)NC(=O)C(C(O)C2CNC(=N)N2)NC(=O)C(Cc2ccc(O)c(N(C)C)c2)NC1=O (stereo not drawn) [Example 12, Cyclo[glycyl-β-methylphenylalanyl-3-(dimethylamino)tyrosyl-3-(2-iminoimidazolidin-4-yl)-seryl-3-(3-hexopyranosyl-2-iminoimidazolidin-4-yl)serylseryl]]","MIC Staphylococcus aureus (ATCC 29213) [1, 5]: >128 µg/mL; MIC Staphylococcus aureus (GC 1131) [1, 6]: >128 µg/mL; MIC Staphylococcus aureus (GC 3051) [1, 7]: >128 µg/mL; MIC Staphylococcus aureus (GC 3053) [1, 8]: >128 µg/mL; MIC Staphylococcus aureus (GC 4541) [1, 9]: >128 µg/mL; MIC Staphylococcus aureus (GC 4542) [1, 10]: >128 µg/mL; MIC Staphylococcus aureus-SMITH (GC 4543) [1, 11]: >128 µg/mL; MIC Staphylococcus aureus (GC 4544) [1, 12]: >128 µg/mL; MIC Staphylococcus aureus (GC 4545) [1, 13]: >128 µg/mL; MIC Staphylococcus haemolyticus (GC 4546) [1, 14]: >128 µg/mL; MIC Coagulase Negative Staphylococcus (GC 4547) [1, 15]: >128 µg/mL; MIC Coagulase Negative Staphylococcus (GC 4548) [1, 16]: >128 µg/mL; MIC Coagulase Negative Staphylococcus (GC 4549) [1, 17]: >128 µg/mL; MIC Coagulase Negative Staphylococcus (GC 4551) [1, 18]: >128 µg/mL; MIC Coagulase Negative Staphylococcus (GC 6257) [1, 19]: >128 µg/mL"
>64,64,64,>64,>64,>64,64,>64,64,64,64,>64,4,2,8,16,4,>64,>64,32,"CC(=O)Nc1cc(CC2NC(=O)C(C(C)c3ccccc3)NC(=O)CNC(=O)C(CO)NC(=O)C(C(O)C3CNC(=N)N3C3OC(CO)C(O)C(O)C3O)NC(=O)C(C(O)C3CNC(=N)N3)NC2=O)ccc1O (stereo not drawn) [Example 13, Cyclo[-glycyl-β-methylphenylalanyl-3-acetamidotyrosyl-3-(2-iminoimidazolidin-4-yl)seryl-3-(3-hexopyranosyl-2-iminoimidazolodin-4-yl)serylseryl]]","MIC Staphylococcus aureus (ATCC 29213) [1, 5]: 64 µg/mL; MIC Staphylococcus aureus (GC 1131) [1, 6]: 64 µg/mL; MIC Staphylococcus aureus (GC 3051) [1, 7]: 64 µg/mL; MIC Staphylococcus aureus (GC 3053) [1, 8]: 64 µg/mL; MIC Staphylococcus aureus (GC 4541) [1, 9]: 64 µg/mL; MIC Staphylococcus aureus (GC 4542) [1, 10]: 64 µg/mL; MIC Staphylococcus aureus-SMITH (GC 4543) [1, 11]: 64 µg/mL; MIC Staphylococcus aureus (GC 4544) [1, 12]: 64 µg/mL; MIC Staphylococcus aureus (GC 4545) [1, 13]: 64 µg/mL; MIC Staphylococcus haemolyticus (GC 4546) [1, 14]: 64 µg/mL; MIC Coagulase Negative Staphylococcus (GC 4547) [1, 15]: 64 µg/mL; MIC Coagulase Negative Staphylococcus (GC 4548) [1, 16]: 64 µg/mL; MIC Coagulase Negative Staphylococcus (GC 4549) [1, 17]: 32 µg/mL; MIC Coagulase Negative Staphylococcus (GC 4551) [1, 18]: 64 µg/mL; MIC Coagulase Negative Staphylococcus (GC 6257) [1, 19]: 32 µg/mL"
